Test results published in publication PMC6148290, “Endogenous metabolites of vitamin E limit inflammation by targeting 5-lipoxygenase” (Nature Communications, 2018).

Key:
[1] = LCM quantitation in plasma of healthy volunteers (UPLC-MS/MS); parameters: species or system human; conditions: endogenous; ten healthy volunteers
Experimental: The diversity of LCMs in vivo is poorly investigated and limited to the analysis of plasma[27] and liver. To quantify vitamin E metabolites in plasma and tissues, we developed a sensitive ultraperformance liquid chromatography ESI tandem mass spectrometry (UPLC-MS/MS)-based quantitation method. […] The detection response of α-T-13′-COOH (4a) was linear between 1 and 250 nM (Fig. 2a), with lower limits of detection between 0.5 and 4 nM for ω-carboxylates and 4 and 250 nM for ω-alcohols (Supplementary Table 3).
Human PMNL, monocytes, PBMC, and platelets were freshly isolated from leukocyte concentrates. The protocols for experiments with human blood and blood cells were approved by the ethical commission of the Friedrich-Schiller-University Jena. […]
LCMs were separated on an Acquity UPLC BEH C18 column (1.7 µm, 2.1 × 50 mm, Waters) at a flow rate of 0.8 ml/min at 45 °C: 0 to 4.5 min, gradient from 50% mobile phase A (acetonitrile/water, 10/90, 0.07% formic acid)/50% mobile phase B (acetonitrile, 0.07% formic acid) to 100% B; 4.5 to 5.5 min, isocratic at 100% B. Multiple reaction monitoring was used to detect LCMs in the negative ion mode. […] Collision energies and lower limits of quantitation are listed in Supplementary Table 3.

[2] = molecular target: T1, human recombinant LTC4 synthase (LTC4S) (Homo sapiens, UniProt Q16873); assay: LTC4 synthase activity; type: biochemical
T1 construct: expressed in transfected cells; host or cells: HEK-293 cells stably expressing LTC4S (microsomal membranes)
T1 sequence (Q16873 1-150): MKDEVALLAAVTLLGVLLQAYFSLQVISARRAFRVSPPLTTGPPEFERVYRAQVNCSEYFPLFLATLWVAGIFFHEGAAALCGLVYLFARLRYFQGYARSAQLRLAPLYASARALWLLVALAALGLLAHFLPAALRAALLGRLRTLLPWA
Experimental: To investigate the effect of LCMs on LTC4S activity, we used microsomal membranes from HEK-293 cells stably expressing LTC4S[70]. […] The conversion of LTA4 to LTC4 methyl esters was initiated by addition of LTA4 methyl ester (Cayman Chemicals; 1 µM). After 10 min at 4 °C, the reaction was terminated by ice-cold methanol (one volume), and LTC-d5 methyl ester (5 ng; Cayman Chemicals) was added as internal standard. LTC4 was extracted and analyzed by UPLC-MS/MS as described for lipid mediators. Vehicle (DMSO)-treated microsomal membranes produced 7.1 ± 0.5 nmol LTC4.

COX-2 = molecular target: T2, COX-2 (Homo sapiens, UniProt P35354); assay: Activity of isolated COX-2; type: biochemical; parameters: purchased Cayman Chemicals; conditions: up to 10 µM
T2 sequence (P35354 18-604): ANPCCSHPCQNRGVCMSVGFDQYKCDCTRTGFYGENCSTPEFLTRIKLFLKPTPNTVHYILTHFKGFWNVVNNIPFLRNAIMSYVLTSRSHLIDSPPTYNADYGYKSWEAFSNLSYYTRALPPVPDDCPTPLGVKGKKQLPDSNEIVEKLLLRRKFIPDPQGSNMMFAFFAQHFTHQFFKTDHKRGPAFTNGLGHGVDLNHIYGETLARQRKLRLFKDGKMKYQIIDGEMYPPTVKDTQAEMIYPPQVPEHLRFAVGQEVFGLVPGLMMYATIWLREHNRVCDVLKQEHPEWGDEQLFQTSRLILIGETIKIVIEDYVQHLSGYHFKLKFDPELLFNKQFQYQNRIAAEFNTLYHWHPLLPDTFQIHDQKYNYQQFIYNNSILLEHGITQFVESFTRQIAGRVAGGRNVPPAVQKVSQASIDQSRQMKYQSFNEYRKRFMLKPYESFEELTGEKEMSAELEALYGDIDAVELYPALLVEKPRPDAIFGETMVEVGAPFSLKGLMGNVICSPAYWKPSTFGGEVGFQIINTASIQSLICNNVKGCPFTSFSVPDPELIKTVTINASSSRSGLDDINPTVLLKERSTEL
Experimental: Purified bovine COX-1 (Cayman Chemicals; 50 units) or human recombinant COX-2 (Cayman Chemicals; 20 units) in 100 mM Tris buffer pH 8, 5 mM glutathione, 5 µM hemoglobin, and 100 µM EDTA were pre-incubated with LCMs for 5 min at 4 °C followed by 1 min at 37 °C. Formation of COX-derived 12(S)-hydroxy-5-cis-8,10-trans-heptadecatrienoic acid (12-HHT) was initiated by addition of AA (COX-1: 5 μM; COX-2: 2 μM).

[3] = system: peripheral blood mononuclear cells; assay: Cell viability of PBMC (MTT assay); type: cell-based, human; conditions: at 1 and 10 µM (one entry for both); 24 h; n.i. no inhibition
Experimental: The formazan product was solubilized with SDS (10% in 20 mM HCl), and absorbance was measured at 570 nm using a Multiskan Spectrum microplate reader (Thermo Fisher Scientific).

Cc1c(C)c2c(c(C)c1O)CC[C@@](C)(CCCC(C)CCCC(C)CCCC(C)C(=O)O)O2 (stereo partly drawn) [4a, 13-((2R)-6-hydroxy-2,5,7,8-tetramethylchroman-2-yl)-2,6,10-trimethyltridecanoic acid]
α-T-13′-COOH (4a) concentration in human plasma [1]: 8 to 49 nM
IC50 [2]: 9.9 µM
inhibition of human recombinant COX-2 (COX-2): not inhibited
Cell viability/peripheral blood mononuclear cells, residual viability [3]: n.i.
